The text below walks through data of patent publication US6589984B1, “Benzofurylpyrone derivatives” (Teijin Limited, priority 1998, dated 2003).

As a reminder, the IC50 is the midpoint of a concentration-inhibition curve. High values mean weaker potency, low ones greater potency.

The subject of one test is Human hepatic cancer cells HepG2. In words: TG production inhibiting activity (14C-acetic acid incorporation into TG) in HepG2 cells. The format is cell-based. The note with it: Homo sapiens, HepG2; group criterion, alternatives: IC50 at least 10 μM and less than 100 μM, or at least 5% and less than 30% inhibition at 1 μM, or at least 30% and less than 50% inhibition at 10 μM. How it is done:
Human hepatic cancer cells HepG2 were inoculated into a 24-well plate (Costar No. 3524) at 4×10^4 cells/well, and 1 ml of medium (eRDF medium containing 10% bovine serum (Kyokuto Chemical Co.)) was used for 6 day culturing with 5% CO2 at 37° C. After drawing off the supernatant medium, the cells were freshly rinsed with 1 ml of PBS(−) buffer solution (Takara Shuzo) and drawn off. This procedure was repeated twice and then 1 ml of fresh medium (eRDF medium) was added.
6-(benzofuran-2-yl)-3,5-dimethyl-4-hydroxy-2H-pyran-2-one (Example 2) was dissolved in dimethylsulfoxide (DMSO) to prepare a 20 mM sample stock solution. A diluted solution was obtained by diluting the sample solution with DMSO.
To the cells prepared above there were added the sample stock solution or its diluted solution at 5 μl per well and 10 μl of ^14C-acetic acid solution (a solution of Amersham Code No. CFA13 diluted 4.4-fold with PBS(−) buffer), and culturing was carried out for one day with 5% CO2 at 37° C.
After the culturing was completed, the culture solution was removed, and 1 ml of extraction solution (a mixture of n-hexane and isopropyl alcohol at 2:1) was added for extraction treatment on the lipid components in the cells. After the treatment, the extract containing the obtained lipid components was air-dried, the residue was redissolved in 20 μl of a mixed solution of n-hexane and ethyl acetate at 9:1, and the solution was spotted on a thin-layer chromatography plate (S319, Tokyo Kasei) and developed by thin-layer chromatography with the mixed solution mentioned above. After air-drying, the lipid components were colored with iodine vapor, the portion corresponding to TG was cut out, and the amount of TG biosynthesized was measured with a liquid scintillation counter.
Turning to `COc1cccc2oc(-c3oc(=O)c(C)c(O)c3C)cc12` [Example 267, 3,5-dimethyl-4-hydroxy-6-(4-methoxybenzofuran-2-yl)-2H-pyran-2-one], the IC50 was in the range of 10 to 100 µM.

For `Cc1c(-c2cc3cc(OCc4ccccn4)ccc3o2)oc(=O)c(C)c1O` [Example 87, 3,5-dimethyl-4-hydroxy-6-(5-(2-pyridylmethoxy)benzofuran-2-yl)-2H-pyran-2-one], the IC50 was 10 to 100 µM. In the case of `Cc1c(-c2cc3ccccc3o2)oc(=O)c(C)c1OC(=O)c1ccc(O)nc1` [Example 74, 6-(benzofuran-2-yl)-3,5-dimethyl-4-(6-hydroxynicotinoyloxy)-2H-pyran-2-one], the IC50 fell in the range of 10 to 100 µM.

Consider `Cc1c(-c2cc3cc(OCc4ccc(Cl)cc4)ccc3o2)oc(=O)c(C)c1O` [Example 79, 6-(5-(4-chlorobenzyloxy)benzofuran-2-yl)-3,5-dimethyl-4-hydroxy-2H-pyran-2-one], for which the IC50 was in the range of 10 to 100 µM. On the same count and under the same terms, in the case of `CCOC(=O)CCCCCOc1ccc2oc(-c3oc(=O)c(C)c(O)c3C)cc2c1` [Example 217, 3,5-dimethyl-6-(5-(5-(ethoxycarbonyl)pentyloxy)benzofuran-2-yl)-4-hydroxy-2H-pyran-2-one] it was 10 to 100 µM; in that of `CC(=O)Oc1c(C)c(-c2cc3ccc(O)cc3o2)oc(=O)c1C` [Example 18, 4-acetyloxy-3,5-dimethyl-6-(6-hydroxybenzofuran-2-yl)-2H-pyran-2-one], 10 to 100 µM; in that of `Cc1c(-c2cc3cc(OCc4nccs4)ccc3o2)oc(=O)c(C)c1O` [Example 60, 4-hydroxy-3,5-dimethyl-6-(5-(2-thiazolylmethoxy)benzofuran-2-yl)-2H-pyran-2-one], 10 to 100 µM. For `CC(=O)Oc1c(C)c(-c2cc3cc(C(=O)O)ccc3o2)oc(=O)c1C` [Example 264, 4-acetyloxy-6-(5-carboxybenzofuran-2-yl)-3,5-dimethyl-2H-pyran-2-one], the IC50 fell in the range of 10 to 100 µM. In turn, `Cc1c(-c2cc3cc(OCC(c4ccccc4)c4ccccc4)ccc3o2)oc(=O)c(C)c1O` [Example 195, 3,5-dimethyl-6-(5-(2,2-diphenylethoxy)benzofuran-2-yl)-4-hydroxy-2H-pyran-2-one] came in with an IC50 of 10 to 100 µM. Molecule `CC(=O)OCCOc1ccc2cc(-c3oc(=O)c(C)c(OC(C)=O)c3C)oc2c1` [Example 280, 4-acetyloxy-6-(6-(2-(acetyloxy)ethoxy)benzofuran-2-yl)-3,5-dimethyl-2H-pyran-2-one] displayed an IC50 of 10 to 100 µM. On the same count and under the same terms, in the case of `CC(=O)Oc1c(C)c(-c2cc3ccc(-c4ccco4)cc3o2)oc(=O)c1C` [Example 24, 4-acetyloxy-3,5-dimethyl-6-(6-(2-furyl)benzofuran-2-yl)-2H-pyran-2-one] it was 10 to 100 µM. The molecule `Cc1c(-c2cc3cc(OCc4c(Cl)cccc4Cl)ccc3o2)oc(=O)c(C)c1O` [Example 157, 6-(5-(2,6-dichlorobenzyloxy)benzofuran-2-yl)-3,5-dimethyl-4-hydroxy-2H-pyran-2-one] displayed an IC50 of 10 to 100 µM. With `Cc1c(-c2cc3cccc(O)c3o2)oc(=O)c(C)c1O` [Example 281, 3,5-dimethyl-4-hydroxy-6-(7-hydroxybenzofuran-2-yl)-2H-pyran-2-one], the concentration for half-maximal inhibition (IC50) lay within 10 to 100 µM. For `COC(=O)CCOc1ccc2cc(-c3oc(=O)c(C)c(OC(C)=O)c3C)oc2c1` [Example 278, 4-acetyloxy-3,5-dimethyl-6-(6-(2-(methoxycarbonyl)ethoxy)benzofuran-2-yl)-2H-pyran-2-one], the IC50 lay in the range of 10 to 100 µM.

In turn, `CC(=O)Oc1c(C)c(-c2cc3cc(OC(=O)c4ccccc4)ccc3o2)oc(=O)c1C` [Example 296, 4-acetyloxy-6-(5-benzoyloxybenzofuran-2-yl)-3,5-dimethyl-2H-pyran-2-one] yielded an IC50 of 10 to 100 µM.

With `Cc1c(-c2cc3cc(OCC4CCCCN4C)ccc3o2)oc(=O)c(C)c1O` (stereo not drawn) [Example 95, 3,5-dimethyl-4-hydroxy-6-(5-(1-methylpiperidin-2-ylmethoxy)benzofuran-2-yl)-2H-pyran-2-one], the IC50 fell in the range of 10 to 100 µM. `Cc1c(-c2cc3cc(N(C)C(=O)c4cccnc4)ccc3o2)oc(=O)c(C)c1O` [Example 253, 3,5-dimethyl-4-hydroxy-6-(5-(N-methyl-N-(3-pyridylcarbonyl)amino)benzofuran-2-yl)-2H-pyran-2-one]: the IC50 lay in the range of 10 to 100 µM. As to `CCC=CCCOc1ccc2oc(-c3oc(=O)c(C)c(O)c3C)cc2c1` [Example 179, 3,5-dimethyl-6-(5-(3-hexen-1-yloxy)benzofuran-2-yl)-4-hydroxy-2H-pyran-2-one], the IC50 fell in the range of 10 to 100 µM.

Turning to `CC(=O)Oc1c(C)c(-c2cc3cccc(OC(C)=O)c3o2)oc(=O)c1C` [Example 284, 4-acetyloxy-6-(7-acetyloxybenzofuran-2-yl)-3,5-dimethyl-2H-pyran-2-one], the IC50 was in the range of 10 to 100 µM. On the same count and under the same terms, in the case of `Cc1c(-c2cc3cc(O)ccc3o2)oc(=O)c(C)c1O` [Example 262, 3,5-dimethyl-4-hydroxy-6-(5-hydroxybenzofuran-2-yl)-2H-pyran-2-one] it was 10 to 100 µM; in that of `CC(=O)Oc1ccc2oc(-c3oc(=O)c(C)c(OC(C)=O)c3C)cc2c1` [Example 269, 4-acetyloxy-6-(5-acetyloxybenzofuran-2-yl)-3,5-dimethyl-2H-pyran-2-one], 10 to 100 µM.

Still in this test, the particulars now being: Homo sapiens, HepG2; group criterion, alternatives: IC50 less than 10 μM, or at least 30% inhibition at 1 μM, or at least 50% inhibition at 10 μM.
`CC(=O)Oc1c(C)c(-c2cc3c(OCc4ccccc4)cccc3o2)oc(=O)c1C` [Example 260, 4-acetyloxy-6-(4-benzyloxybenzofuran-2-yl)-3,5-dimethyl-2H-pyran-2-one] showed an IC50 of less than 10 µM. `Cc1c(-c2cc3cc(N(C)C(=O)OC(C)(C)C)ccc3o2)oc(=O)c(C)c1O` [Example 255, 6-(5-(N-(t-butoxycarbonyl)-N-methylamino)benzofuran-2-yl)-3,5-dimethyl-4-hydroxy-2H-pyran-2-one] returned an IC50 of less than 10 µM. Same read-out and setting: in the case of `Cc1c(-c2cc3ccccc3o2)oc(=O)c(C)c1OS(C)(=O)=O` [Example 4, 6-(benzofuran-2-yl)-3,5-dimethyl-4-methanesulfonyloxy-2H-pyran-2-one] it was less than 10 µM; in that of `Cc1c(-c2cc3ccccc3o2)oc(=O)c(C)c1C(=O)OC1CCC(=O)N1` (stereo not drawn) [Example 70, 6-(benzofuran-2-yl)-3,5-dimethyl-4-(2-pyrrolidon-5-ylcarboxy)-2H-pyran-2-one], less than 10 µM; in that of `CC(=O)Nc1ccc(C(=O)Oc2c(C)c(-c3cc4ccccc4o3)oc(=O)c2C)cc1` [Example 76, 4-(4-(acetylamino)benzoyloxy)-6-(benzofuran-2-yl)-3,5-dimethyl-2H-pyran-2-one], less than 10 µM. `Cc1c(-c2cc3ccccc3o2)oc(=O)c(C)c1OC(=O)C(C)C` [Example 39, 6-(benzofuran-2-yl)-3,5-dimethyl-4-isobutyryloxy-2H-pyran-2-one]: the IC50 is less than 10 µM. `Cc1ccc(COc2ccc3oc(-c4oc(=O)c(C)c(O)c4C)cc3c2)cc1C` [Example 134, 6-(5-(3,4-dimethylbenzyloxy)benzofuran-2-yl)-3,5-dimethyl-4-hydroxy-2H-pyran-2-one] yielded an IC50 of less than 10 µM. On the same count and under the same terms, in the case of `CCc1c(-c2cc3ccccc3o2)oc(=O)c(C)c1O` [Example 33, 6-(benzofuran-2-yl)-5-ethyl-4-hydroxy-3-methyl-2H-pyran-2-one] it was less than 10 µM; in that of `Cc1c(-c2cc3cc(OCc4cncc(O)c4)ccc3o2)oc(=O)c(C)c1O` [Example 304, 3,5-dimethyl-4-hydroxy-6-(5-(5-hydroxy-3-pyridylmethoxy)benzofuran-2-yl)-2H-pyran-2-one], less than 10 µM; in that of `Cc1c(-c2cc3ccccc3o2)oc(=O)c(C)c1OC(=O)c1cccnc1` [Example 63, 6-(benzofuran-2-yl)-3,5-dimethyl-4-nicotinoyloxy-2H-pyran-2-one], less than 10 µM. Turning to `Cc1c(-c2cc3cc(N(C)C(=O)Cc4ccccc4)ccc3o2)oc(=O)c(C)c1O` [Example 251, 3,5-dimethyl-4-hydroxy-6-(5-(N-methyl-N-(phenylacetyl)amino)benzofuran-2-yl)-2H-pyran-2-one], the IC50 is less than 10 µM.

On to `Cc1c(-c2cc3cc(C(=O)N4CCc5ccccc5C4)ccc3o2)oc(=O)c(C)c1O` [Example 302, 3,5-dimethyl-4-hydroxy-6-(5-(1,3,4-trihydroisoquinolin-2-ylcarbonyl)benzofuran-2-yl)-2H-pyran-2-one], for which the half-maximal inhibitory concentration (IC50) is less than 10 µM. Molecule `CC(=O)Oc1c(C)c(-c2cc3cccc(OCc4ccccc4)c3o2)oc(=O)c1C` [Example 285, 4-acetyloxy-6-(7-benzyloxybenzofuran-2-yl)-3,5-dimethyl-2H-pyran-2-one] displayed an IC50 of less than 10 µM.

`Cc1c(-c2cc3cc(OCc4cncnc4)ccc3o2)oc(=O)c(C)c1O` [Example 27, 3,5-dimethyl-4-hydroxy-6-(5-(5-pyrimidinylmethoxy)benzofuran-2-yl)-2H-pyran-2-one]: the IC50 was less than 10 µM. The molecule `CC(=O)Oc1c(C)c(-c2cc3ccc(OS(=O)(=O)C(F)(F)F)cc3o2)oc(=O)c1C` [Example 19, 4-acetyloxy-3 ,5-dimethyl-6-(6-(trifluoromethanesulfonyloxy)benzofuran-2-yl)-2H-pyran-2-one] came in with an IC50 of less than 10 µM.
